Test results published in patent US20180214583A1, “PHARMACEUTICAL COMBINATION FOR THE TREATMENT OF CANCER” (BAYER PHARMA AKTIENGESELLSCHAFT, priority 2015, published 2018).

Legend:
[1] = single dose 250 kBq per kg body weight; cited from earlier work
[2] = system: bone metastatic prostate tumors; test: Radium-223 with anti-PD-L1 immunotherapy in bone metastatic prostate cancer mice models; type: in vivo
Procedure: PD-L1 expression after Ra-223 treatment, and blocking PD-L1 combined with Ra-223 as a treatment for bone metastatic prostate cancer is examined in bone metastatic prostate cancer mice models.
The safety and efficacy of Ra-223 combined with anti-PD-L1 antibody versus Ra-223 or […] alone and radiation therapy as controls are tested. A genetically engineered mouse model (Pten/Smad4-null FVB mice, Ding et al., Nature 2011) is used. Treatments are initiated in mice with established tumors. The goal here is to evaluate treatment efficacy. At the experimental endpoint, tumor volume, metastatic burden (lung and liver) and mouse survival is measured.

[3] = system: diffuse large B-cell lymphoma (DLBCL); details: cited from earlier work

Compound | cases of grade 3 neutropenia [1] | observed adverse reactions [1] | PD-L1 expression after treatment [2] | subjects progression-free at the end of the follow-up period ([3]; DLBCL subjects after autologous stem cell transplantation, preliminary results, control group 47%) [%] | subjects alive ([3]; DLBCL subjects after autologous stem cell transplantation, preliminary results, control group 62%) [%] | effect on natural killer cells ([3]; phase II trial)
[Cl][223Ra][Cl] [radium-223, radium-223 dichloride] | 1/5 | diarrhea and reversible myelosuppression | upregulates PD-L1 expression |  |  | 
CT-011: humanized IgG 1 monoclonal antibody against PD-1 |  |  |  | 70 | 82 | augments the activity of natural killer cells
